Test results: patent US12115209B2, “ROMO1-derived antimicrobial peptides including lysine substitution and variants thereof” (KOREA UNIVERSITY RESEARCH AND BUSINESS FOUNDATION, priority 2019, dated 2024)
In brackets after ≈: the same amount, converted by molar mass. Non-standard residues stand in square brackets, D forms with d. Residues, ends and D or L forms follow the SMILES beside them. No end group written: not given here. Nle = CCCC[C@H](N)C(=O)O

Assays:
Type in all cases: cell-based
[1] = test system: Staphylococcus aureus (ATCC 29213); experiment: Minimum bactericidal concentration (MBC) assay; parameters: MBC Staphylococcus aureus: unit: µg/mL
Protocol: (§1) First, each of Pseudomonas aeruginosa (ATCC 27853) and Staphylococcus aureus (ATCC 29213) was cultured in 3% (w/v) TSB (tryptic soy broth) liquid medium at 37° C. and 200 rpm for 4 hours, and then further cultured under the same conditions for 3 hours to a concentration of 5×10^6 CFU/ml. Strain solutions were prepared by diluting each of the further cultured strains with SP (sodium phosphate; 10 mM sodium phosphate, 1% TSB) buffer to a final concentration of 2×10^5 CFU/ml.
(§2) Then, each peptide at varying concentrations (0 μg/ml to 300 μg/ml) was dispensed into each well of a 96-well microplate, and 100 μl (1×10^5 CFU/ml) of each of the prepared strain solutions was added thereto, mixed therewith, and allowed to react with the peptide in an incubator at 37° C. for 1 hour.
(§3) In addition, 30 g/L of TS (tryptic soy) and 15 g/L of agar were dissolved in distilled water and sterilized, and then 25 ml of the solution was poured onto a 100 mm round plate and solidified at room temperature for one day or more, thereby preparing a TS agar plate. 10 μl of each reaction solution of the peptide and the strain was plated on the TS agar plate at a constant size, and incubated in an incubator at 37° C. for 18 hours, and then colony formation on the plate was checked. The minimum bactericidal concentration was defined as the minimum concentration of the peptide at which no colony was formed, and the experimental results are shown in Table 1 below.

[2] = test system: Pseudomonas aeruginosa (ATCC 27853); experiment: Minimum bactericidal concentration (MBC) assay; parameters: MBC Pseudomonas aeruginosa: unit: µg/mL
Protocol: as §1, §2, §3

[3] = test system: Methicillin-resistant Staphylococcus aureus (MRSA, ATCC 33591); experiment: Minimum bactericidal concentration (MBC) assay; parameters: unit: µg/mL
Protocol: as §1, with “2×10^5 CFU/ml. […]” for “2×10^5 CFU/ml.”
as §3, with “checked.” for “checked. The minimum bactericidal concentration was defined as the minimum concentration of the peptide at which no colony was formed, and the experimental results are shown in Table 1 below.”
Specifically, each type of bacteria was cultured in 3% (w/v) TSB (tryptic soy broth) liquid medium at 37° C. and 200 rpm for 4 hours, and then further cultured under the same conditions for 3 hours to a concentration of 5×10^6 CFU/ml. Strain solutions were prepared by diluting each of the further cultured strains with SP buffer to a final concentration of 2×10^5 CFU/ml.
as §2, with “Then, the KU-5878” for “Then, each”
In addition, 10 μl of each reaction solution of the peptide and the strain was plated on the TS agar plate at a constant size, and incubated in an incubator at 37° C. for 18 hours, and then colony formation on the plate was checked.

[4] = test system: CRPA; experiment: Minimum bactericidal concentration (MBC) assay; parameters: unit: µg/mL
[5] = test system: Pseudomonas aeruginosa, Staphylococcus aureus, CRPA, MRSA; experiment: Increase in antibacterial activity (MBC) compared with KU-5878
[6] = mark = antibacterial activity increased compared with KU-5878

Row | Compound | MBC Staphylococcus aureus ([1]; Tables 11-21, no unit printed) | MBC Pseudomonas aeruginosa ([2]; Tables 11-21, no unit printed) | MBC MRSA ([3]; Tables 11-21, no unit printed) | MBC CRPA ([4]; Tables 11-21, no unit printed) | Increase in activity [5, 6] | MBC Staphylococcus aureus ([1]; Staphylococcus aureus) [µg/mL] | MBC Pseudomonas aeruginosa ([2]; Pseudomonas aeruginosa) [µg/mL] | MBC MRSA ([3]; MRSA) [µg/mL] | MBC CRPA ([4]; CRPA) [µg/mL] | Increase in activity ([5]; compared with KU-5878)
1 | KK-MKKGGKFGTF-AIGMGIR [Peptide K4-d60M-d71M] | 10 µg/mL | 10 µg/mL | 12 µg/mL | 10 µg/mL | ◯ |  |  |  |  | 
2 | KKMMKKGGKFGTFMAIGMGI- [Peptide 5878-K4-78R] | 10 µg/mL | 4 µg/mL | 4 µg/mL | 8 µg/mL | ◯ |  |  |  |  | 
3 | KKMMKK-GKFGTF-AIGMGIR [Peptide K4-d64G-d71M] | 15 µg/mL | 15 µg/mL | 18 µg/mL | 18 µg/mL | ◯ |  |  |  |  | 
4 | d 60M 69T 71M 75M (MKKGGKFG) |  |  |  |  |  | 1 | 2 | 2 | 2 | ◯
5 | KKMMKKGGKF-TFMAIGMGIR [Peptide 5878-K4-d68G] | 4 µg/mL | 4 µg/mL | 4 µg/mL | 6 µg/mL | ◯ |  |  |  |  | 
6 | -KMM-KGGKF-TFM-IG-GIR [d 58K 62K 68G 72A 75M] | 15 µg/mL | 16 µg/mL | 18 µg/mL | 15 µg/mL | ◯ |  |  |  |  | 
7 | KT-MQSGGTFGTFMAIGMGIR [Peptide 5878-d60M] | 90 µg/mL | 90 µg/mL | 100 µg/mL | 90 µg/mL | 0 |  |  |  |  | 
8 | KK-M-KGGKF-TFM-IG-GIR [d 60M 62K 68G 72A 75M] | 4 µg/mL | 4 µg/mL | 5 µg/mL | 4 µg/mL | ◯ |  |  |  |  | 
9 | KTMMQS-GTFGTFMAIGMGIR [Peptide 5878-d64G] | 100 µg/mL | 100 µg/mL | 100 µg/mL | 110 µg/mL | 0 |  |  |  |  | 
10 | KKMMKKGGKFG-F-AIG-GIR [d 69T 71M 75M] | 2 µg/mL | 2 µg/mL | 2 µg/mL | 3 µg/mL | ◯ |  |  |  |  | 
11 | KKMMKKGGKFGTFMAI-MGIR [Peptide 5878-K4-d74G] | 2 µg/mL | 2 µg/mL | 3 µg/mL | 4 µg/mL | ◯ |  |  |  |  | 
12 | KK---KGGKFGTF-AIG-GIR [d 60M 61M 62K 71M 75M] | 80 µg/mL | 80 µg/mL | 80 µg/mL | 80 µg/mL | ◯ |  |  |  |  | 
13 | KKMMQSGGTFGTFMAIGMGIR [KU-5878-T59K] | 40 µg/mL | 50 µg/mL | 50 µg/mL | 50 µg/mL | ◯ |  |  |  |  | 
14 | -KMMKKGGKFGTFMAIGMGIR [5878-K4-d58K(=d59K)] | 6 µg/mL | 2 µg/mL | 2 µg/mL | 6 µg/mL | ◯ |  |  |  |  | 
15 | KTMM-SGGTFGTFMAIGMGIR [Peptide 5878-4620] | 90 µg/mL | 100 µg/mL | 100 µg/mL | 100 µg/mL | 0 |  |  |  |  | 
16 | KKMMKKGGKFGTFMAIGMG-R [Peptide 5878-K4-d77I] | 7 µg/mL | 4 µg/mL | 4 µg/mL | 6 µg/mL | ◯ |  |  |  |  | 

Row | Compound | MBC Staphylococcus aureus ([1]; Tables 11-21, no unit printed) | MBC Pseudomonas aeruginosa ([2]; Tables 11-21, no unit printed) | MBC MRSA ([3]; Tables 11-21, no unit printed) | MBC CRPA ([4]; Tables 11-21, no unit printed) | Increase in activity [5, 6] | MBC Staphylococcus aureus ([1]; Staphylococcus aureus) [µg/mL] | MBC Pseudomonas aeruginosa ([2]; Pseudomonas aeruginosa) [µg/mL] | MBC MRSA ([3]; MRSA) [µg/mL] | MBC CRPA ([4]; CRPA) [µg/mL] | Increase in activity ([5]; compared with KU-5878)
17 | KKMMKKGGK-GTFMAIGMGIR [Peptide 5878-K4-d67F] | 6 µg/mL | 4 µg/mL | 4 µg/mL | 5 µg/mL | ◯ |  |  |  |  | 
18 | KKMMKKGG-FGTFMAIGMGIR [Peptide 5878-K4-d66K] | 6 µg/mL | 4 µg/mL | 4 µg/mL | 4 µg/mL | ◯ |  |  |  |  | 
19 | KKMMKKGGKFGTFMAIG-GIR [Peptide 5878-K4-d75M] | 2 µg/mL | 2 µg/mL | 2 µg/mL | 4 µg/mL | ◯ |  |  |  |  | 
20 | KKMM-K-GKF-TFM-IG-GIR [d 62K 64G 68G 72A 75M] | 4 µg/mL | 4 µg/mL | 4 µg/mL | 4 µg/mL | ◯ |  |  |  |  | 
21 | KKMMKK-GKFGTFMAIGMGIR [5878-K4-d64G(=d65G)] | 2 µg/mL | 2 µg/mL | 2 µg/mL | 4 µg/mL | ◯ |  |  |  |  | 
22 | -K-MKKGGKFGTFMAIG-GIR [d 58K 60M 75M] | 6 µg/mL | 6 µg/mL | 8 µg/mL | 8 µg/mL | ◯ |  |  |  |  | 
23 | KKMMKKGGKFGGFMAIGMGIR [Peptide K4-T69G] | 2 | 2 | 3 | 2 | ◯ |  |  |  |  | 
24 | KTMMQSGGTFGTFMAIGMGIRKK [Peptide 5878-KK] | 16 µg/mL | 15 µg/mL | 16 µg/mL | 16 µg/mL | ◯ |  |  |  |  | 
25 | -KMMKKGGKFGTF-AIG-GIR [d 58K 71M 75M] | 3 µg/mL | 4 µg/mL | 4 µg/mL | 2 µg/mL | ◯ |  |  |  |  | 
26 | KTMMQSGGTF-TFMAIGMGIR [Peptide 5878-d68G] | 20 µg/mL | 25 µg/mL | 25 µg/mL | 18 µg/mL | 0 |  |  |  |  | 
27 | KKMM-KGGKFGTFMAIGMGIR [5878-K4-d62K(=d63K)] | 6 µg/mL | 2 µg/mL | 6 µg/mL | 6 µg/mL | ◯ |  |  |  |  | 
28 | CCCC[C@H](NC(=O)CNC(=O)[C@@H](NC(=O)[C@H](C)NC(=O)[C@H](CCCC)NC(=O)[C@H](Cc1ccccc1)NC(=O)[C@@H](NC(=O)CNC(=O)[C@H](Cc1ccccc1)NC(=O)[C@@H](NC(=O)CNC(=O)CNC(=O)[C@H](CO)NC(=O)[C@H](CCC(N)=O)NC(=O)[C@H](CCCC)NC(=O)[C@H](CCCC)NC(=O)[C@@H](NC(=O)[C@@H](N)CCCCN)[C@@H](C)O)[C@@H](C)O)[C@@H](C)O)[C@@H](C)CC)C(=O)NCC(=O)N[C@H](C(=O)N[C@@H](CCCNC(=N)N)C(=O)O)[C@@H](C)CC [KU-5878-4Nle] (H-KT[Nle][Nle]QSGGTFGTF[Nle]AIG[Nle]GIR-OH; N-terminus and C-terminus assumed) | 90 µg/mL (≈ 41.8 µM) | 110 µg/mL (≈ 51.1 µM) | 100 µg/mL (≈ 46.5 µM) | 100 µg/mL (≈ 46.5 µM) | antibacterial activity of the peptide was improved |  |  |  |  | 
29 | d 58K 60M 71M 72A (MKKGGKFGTF) |  |  |  |  |  | 15 | 20 | 20 | 20 | ◯
30 | KKMMKKGGTFGTFMAIGMGIR [KU-5878-K3 (T59K, Q62K, S63K)] | 4 µg/mL | 4 µg/mL | 5 µg/mL | 4 µg/mL | ◯ |  |  |  |  | 
31 | KK-MKKGGKFGTFMAIGMGIR [5878-K4-d60M(=d61M)] | 3 µg/mL | 2 µg/mL | 2 µg/mL | 4 µg/mL | ◯ |  |  |  |  | 
32 | KKMMKSGGTFGTFMAIGMGIR [KU-5878-K2(T59K, Q62K)] | 8 µg/mL | 8 µg/mL | 8 µg/mL | 6 µg/mL | ◯ |  |  |  |  | 
